Assay results taken from US8916575B2, “Quinazoline derivatives for the treatment of viral infections and further diseases” (Janssen R&D Ireland, priority 2011, dated 2014).

Tests used:
[1] = biological target: T1, human TLR8 (Homo sapiens, UniProt Q9NR97); assay: TLR8 wild type NFκB-luc cellular reporter assay; type: cell-based; design: unit not given here; settings: HEK293 NFκB-luc reporter, 6 hours incubation; for TLR8-wt (LEC): second part of table
T1 construct: expressed in transfected cells; host or cells: HEK293
T1 sequence (Q9NR97 27-1041): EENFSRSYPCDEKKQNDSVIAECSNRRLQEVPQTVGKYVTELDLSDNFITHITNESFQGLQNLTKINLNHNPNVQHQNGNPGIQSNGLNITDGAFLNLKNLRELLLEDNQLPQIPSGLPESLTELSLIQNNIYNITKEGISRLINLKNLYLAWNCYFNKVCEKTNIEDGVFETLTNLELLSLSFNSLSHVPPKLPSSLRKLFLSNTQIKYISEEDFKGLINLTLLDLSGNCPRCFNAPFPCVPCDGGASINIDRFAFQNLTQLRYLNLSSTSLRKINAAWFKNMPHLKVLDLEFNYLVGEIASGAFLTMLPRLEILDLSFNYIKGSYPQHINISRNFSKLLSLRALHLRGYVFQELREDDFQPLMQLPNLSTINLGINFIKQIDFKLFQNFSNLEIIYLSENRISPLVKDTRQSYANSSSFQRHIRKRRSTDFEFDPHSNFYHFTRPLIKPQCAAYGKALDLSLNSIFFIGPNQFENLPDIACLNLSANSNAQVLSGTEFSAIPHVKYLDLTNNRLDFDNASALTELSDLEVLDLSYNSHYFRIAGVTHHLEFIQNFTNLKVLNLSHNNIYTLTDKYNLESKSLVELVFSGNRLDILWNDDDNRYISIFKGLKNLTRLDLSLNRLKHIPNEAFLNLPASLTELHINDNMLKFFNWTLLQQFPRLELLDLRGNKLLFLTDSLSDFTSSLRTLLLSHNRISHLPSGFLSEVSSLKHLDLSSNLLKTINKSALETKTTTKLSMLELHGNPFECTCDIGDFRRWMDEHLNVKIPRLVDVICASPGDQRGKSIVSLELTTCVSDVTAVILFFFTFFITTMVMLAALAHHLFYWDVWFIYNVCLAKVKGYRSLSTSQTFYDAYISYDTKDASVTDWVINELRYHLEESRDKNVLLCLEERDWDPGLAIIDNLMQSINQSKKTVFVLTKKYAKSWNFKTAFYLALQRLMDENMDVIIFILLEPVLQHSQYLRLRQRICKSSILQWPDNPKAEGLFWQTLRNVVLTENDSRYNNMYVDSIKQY
Protocol: (§1) The ability of compounds to activate human TLR7 and/or TLR8 was assessed in a cellular reporter assay using HEK293 cells transiently transfected with a TLR7 or TLR8 expression vector and NFκB-luc reporter construct. In one instance the TLR expression construct expresses the respective wild type sequence or a mutant sequence comprising a deletion in the second leucine-rich repeat of the TLR.
(§2) Briefly, HEK293 cells were grown in culture medium (DMEM supplemented with 10% FCS and 2 mM Glutamine). For transfection of cells in 10 cm dishes, cells were detached with Trypsin-EDTA, transfected with a mix of CMV-TLR7 or TLR8 plasmid (750 ng), NFκB-luc plasmid (375 ng) and a transfection reagent and incubated 24 hours at 37° C. in a humidified 5% CO2 atmosphere. Transfected cells were then detached with Trypsin-EDTA, washed in PBS and resuspended in medium to a density of 1.67×10^5 cells/mL. Thirty microliters of cells were then dispensed into each well in 384-well plates, where 10 μL of compound in 4% DMSO was already present. Following 6 hours incubation at 37° C., 5% CO2, the luciferase activity was determined by adding 15 μl of Steady Lite Plus substrate (Perkin Elmer) to each well and readout performed on a ViewLux ultraHTS microplate imager (Perkin Elmer). Dose response curves were generated from measurements performed in quadruplicates. Lowest effective concentrations (LEC) values, defined as the concentration that induces an effect which is at least two fold above the standard deviation of the assay, were determined for each compound.

[2] = biological target: T2, human TLR7 (Homo sapiens, UniProt Q9NYK1); assay: TLR7 wild type NFκB-luc cellular reporter assay; type: cell-based; design: unit not given here; settings: HEK293 NFκB-luc reporter, 6 hours incubation; for TLR7-wt (LEC): second part of table
T2 construct: expressed in transfected cells; host or cells: HEK293
T2 sequence (Q9NYK1 27-1049): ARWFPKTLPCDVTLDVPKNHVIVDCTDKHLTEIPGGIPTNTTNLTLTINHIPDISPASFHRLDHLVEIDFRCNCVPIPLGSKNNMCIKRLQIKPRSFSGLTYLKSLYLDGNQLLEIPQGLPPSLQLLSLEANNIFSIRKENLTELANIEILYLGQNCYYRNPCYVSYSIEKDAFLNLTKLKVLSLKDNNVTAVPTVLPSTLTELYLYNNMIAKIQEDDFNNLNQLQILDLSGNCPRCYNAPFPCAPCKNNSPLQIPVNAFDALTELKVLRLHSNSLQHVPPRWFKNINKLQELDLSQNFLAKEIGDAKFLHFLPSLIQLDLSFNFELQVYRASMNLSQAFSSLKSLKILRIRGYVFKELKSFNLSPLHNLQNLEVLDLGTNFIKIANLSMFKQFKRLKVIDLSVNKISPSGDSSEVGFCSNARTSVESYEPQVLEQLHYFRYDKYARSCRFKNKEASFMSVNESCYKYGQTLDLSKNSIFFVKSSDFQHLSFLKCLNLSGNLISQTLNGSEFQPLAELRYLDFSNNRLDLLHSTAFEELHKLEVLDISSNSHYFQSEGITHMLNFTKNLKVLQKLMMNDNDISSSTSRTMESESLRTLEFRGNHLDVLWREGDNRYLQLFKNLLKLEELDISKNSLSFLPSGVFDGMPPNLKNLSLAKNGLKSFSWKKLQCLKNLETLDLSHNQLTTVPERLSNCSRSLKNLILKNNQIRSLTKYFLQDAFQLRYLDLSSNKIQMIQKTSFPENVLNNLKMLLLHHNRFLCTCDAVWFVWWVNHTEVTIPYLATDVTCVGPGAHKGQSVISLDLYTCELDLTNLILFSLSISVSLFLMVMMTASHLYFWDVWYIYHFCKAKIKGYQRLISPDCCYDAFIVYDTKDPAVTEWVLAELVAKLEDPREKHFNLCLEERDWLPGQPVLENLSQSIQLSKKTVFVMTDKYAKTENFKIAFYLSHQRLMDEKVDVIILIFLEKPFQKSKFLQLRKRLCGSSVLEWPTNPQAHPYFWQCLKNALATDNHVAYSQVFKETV
Protocol: as §1
as §2, with “Following 6 hours incubation at 37° C., 5% CO2, the luciferase activity was determined by adding 15 μl of Steady Lite Plus substrate (Perkin Elmer) to each well and readout performed on a ViewLux ultraHTS microplate imager (Perkin Elmer).” left out

[3] = tested on: human TLR8 mutant (dIRR2); assay: TLR8 mutant (deletion in second leucine-rich repeat) NFκB-luc cellular reporter assay; type: cell-based; design: unit not given here; settings: HEK293 NFκB-luc reporter, mutant TLR8, 6 hours incubation
Protocol: as §1, §2

[4] = tested on: HCV replicon (Huh-7 luc/neo cells); assay: Suppression of HCV replicon replication by conditioned media from PBMC; type: cell-based, HCV type 1b; settings: Hepatitis C virus, compound concentration applied to PBMCs giving 50% reduction of replicon luciferase activity, read-out: PBMC-HUH7_EC50
Protocol: Activation of human TLR7 results in robust production of interferon by plasmacytoid dendritic cells present in human blood. The potential of compounds to induce interferon was evaluated by looking at the antiviral activity in the HCV replicon system upon incubation with conditioned media from peripheral blood mononuclear cells (PBMC). The HCV replicon assay is based on a bicistronic expression construct, as described by Lohmann et al. (Science (1999) 285: 110-113; Journal of Virology (2003) 77: 3007-15 3019) with modifications described by Krieger et al. (Journal of Virology (2001) 75: 4614-4624). The assay utilized the stably transfected cell line Huh-7 luc/neo harboring an RNA encoding a bicistronic expression construct comprising the wild type NS3-NS5B regions of HCV type 1b translated from an Internal Ribosome Entry Site (IRES) from encephalomyocarditis virus (EMCV), preceded by a reporter gene (Firefly-luciferase) and a selectable marker gene (neoR, neomycine phosphotransferase). The construct is flanked by 5′ and 3′ NTRs (non-translated regions) from HCV type 1b. Continued culture of the replicon cells in the presence of G418 (neoR) is dependent on the replication of the HCV RNA. The stably transfected replicon cells that replicate HCV RNA autonomously and to high levels, encoding inter alia luciferase, were used for profiling of the conditioned cell culture media.
Briefly, PBMCs were prepared from buffy coats of at least two donors using a standard Ficoll centrifugation protocol. Isolated PBMCs were resuspended in RPMI medium supplemented with 10% human AB serum and 2×10^5 cells/well were dispensed into 384-well plates containing compounds (70 μL total volume). After overnight incubation, 10 μL of supernatant was transferred to 384-well plates containing 2.2×10^3 replicon cells/well in 30 μL (plated the day before). Following 24 hours of incubation, replication was measured by assaying luciferase activity using 40 μL/well Steady Lite Plus substrate (Perkin Elmer) and measured with ViewLux ultraHTS microplate imager (Perkin Elmer). The inhibitory activity of each compound on the Huh7-luc/neo cells were reported as EC50 values, defined as the compound concentration applied to the PBMCs resulting in a 50% reduction of luciferase activity which in turn indicates the degree of replication of the replicon RNA on transfer of a defined amount of PBMC culture medium. Recombinant interferon α-2a (Roferon-A) was used as a standard control compound.

[5] = tested on: human TLR7 mutant (dIRR2); assay: TLR7 mutant (deletion in second leucine-rich repeat) NFκB-luc cellular reporter assay; type: cell-based; design: unit not given here; settings: HEK293 NFκB-luc reporter, mutant TLR7, 6 hours incubation
Protocol: as §1, §2

Structure (SMILES)	TLR8-wt (LEC) [1]	TLR7-wt (LEC) [2]	also measured
CCCC[C@@H](CO)Nc1nc(N)nc2cc(OC)c(OC)cc12 [Compound 4]			TLR8-dIRR2_LEC [3]: 1.7; EC50 [4]: 3 µM; TLR8-wt_LEC [1]: 2.6; TLR7-dIRR2_LEC [5]: 2.4
CCCCNc1nc(N)nc2cc(C(=O)NCc3ccccc3)ccc12 [Compound 95]	0.42	0.54	
CCCCNc1nc(N)nc2ccc(C#CC(C)O)cc12 (centres unmarked) [Compound 14]	4.77	0.65	
CCCCNc1nc(N)nc2cc(C(=O)NCCN(C)C)ccc12 [Compound 92]	5.87	1.53	
CCCCNc1nc(N)nc2ccc(C(C)O)cc12 (centres unmarked) [Compound 23]	5.05	10.23	
CCCCNc1nc(N)nc2ccc(-c3cnn(C)c3)cc12 [Compound 20]	2.55	>25	
CCCCNc1nc(N)nc2ccccc12 [Compound 8]			TLR8-dIRR2_LEC [3]: 0.02; TLR8-wt_LEC [1]: 0.1; TLR7-dIRR2_LEC [5]: 0.02; TLR7-wt_LEC ([2]; lowest effective concentration): 0.1
CCCCCNc1nc(N)nc2cc(OC)c(OC)cc12 [Compound 2]			TLR8-dIRR2_LEC [3]: 0.6; EC50 [4]: 4.4 µM; TLR8-wt_LEC [1]: 1.5; TLR7-dIRR2_LEC [5]: 1.2
CCCCNc1nc(N)nc2cc(C(=O)N3CCOCC3)ccc12 [Compound 91]	0.53	0.13	
CC[C@H](C)[C@@H](CO)Nc1nc(N)nc2cc(OC)c(OC)cc12 [Compound 7]			TLR8-dIRR2_LEC [3]: 9.0; EC50 [4]: 12.4 µM; TLR8-wt_LEC [1]: 13.8; TLR7-dIRR2_LEC [5]: 3.8
CCCCNc1nc(N)nc2ccc(C(C)=O)cc12 [Compound 22]	1.95	6.07	
CCCCNc1nc(N)nc2cccc(CCc3cccc(OC)c3)c12 [Compound 97]	0.83	0.6	
CCC[C@@H](CCO)Nc1nc(N)nc2cc(OC)c(OC)cc12 [Compound 5]			TLR8-dIRR2_LEC [3]: 2.6; EC50 [4]: 3.3 µM; TLR8-wt_LEC [1]: 6.7; TLR7-dIRR2_LEC [5]: 2.6
CCCCNc1nc(N)nc2cccc(CCc3ccc(OC)cc3)c12 [Compound 96]	16	2.7	

More lines, main results first:

TLR8-wt (LEC) [1]	TLR7-wt (LEC) [2]	Structure (SMILES)	also measured
1.69	0.77	CCCCNc1nc(N)nc2cc(C(=O)NCc3ccccn3)ccc12 [Compound 93]	
7.05	>25	CCCCNc1nc(N)nc2ccc(C#N)cc12 [Compound 19]	
3.27	0.49	CCCCNC(=O)c1cccc2nc(N)nc(NCCCC)c12 [Compound 15]	
0.31	0.21	CCCCNc1nc(N)nc2cccc(OCC(=O)OC)c12 [Compound 98]	
0.73	0.57	CCCCNc1nc(N)nc2ccc(CCC(C)O)cc12 (centres unmarked) [Compound 16]	
	0.42	CCCCNc1nc(N)nc2cc(C(=O)Nc3cccnc3)ccc12 [Compound 90]	
0.79	1.66	CCCCNc1nc(N)nc2cccc(CCc3ccccn3)c12 [Compound 12]	
0.48	0.07	CCCCNc1nc(N)nc2cc(C(=O)N(C)C)ccc12 [Compound 94]	
